Results from patent US20060234936A1, “Method for screening substances capable of inhibiting the hyperplasia of pancreatic cells and/or the hypersecretion of insulin by pancreatic cells” (Taisho Pharmaceutical Co., Ltd., priority 2005, published 2006).

Key:
INS-1 cells = test: Analysis of cell growth, [3H] thymidine incorporation in INS-1 cells; format: cell-based, rat
Description: (§1) INS-1 cells (rat pancreatic β cell line) were cultured in an incubator at 5% CO2/95% air and 37° C. using an RMI 1640 medium (GIBCO) containing 10 mM HEPES, 10% FBS, 1 mM sodium pyruvate, 50 μM β-mercaptoethanol, 100 units/ml penicillin, and 100 μg/ml streptomycin. Subculturing was carried out every 7 days, using PBS containing 0.25% trypsin/0.02% EDTA
The cells were seeded on a 48-well plate at a concentration of 1×10^5 cells/well and were cultured for 48 hours. After washing the cells with PBS, the cells were cultured in an RPMI-1640 medium (test medium) for 12 to 15 hours which had been deprived of serum and to which 3 mM glucose and 0.1% BSA had been added. […] The cells were cultured in the media for 20 hours, and after further addition of [^3H] thymidine (Amersham) to the media in order to achieve a radioactivity of 1 μCi/well, the cells were cultured for additional 4 hours. After washing the cells with PBS twice followed by with 10% trichloroacetic acid (TCA) twice, the cells were fixed by TCA treatment for 30 minutes. The cells were solublized with 0.1 N NaOH and the radioactivity of each medium was measured with a liquid scintillation counter.

Reg IIIβ = test: Real-time quantitative RT-PCR of Reg IIIβ mRNA in INS-1 cells treated with PACAP; format: cell-based, rat
Description: as §1
Real-time quantitative PCR was conducted under the conditions similarly to the mouse islet case. The expression level of the β-actin gene was analyzed as an internal standard in a similar manner. In PCR the primers having the following sequences were used.

isolated islet = settings: cited from earlier work
Reg IIIβ gene = test: Gene expression inhibition by siRNA, Reg IIIβ mRNA by real-time quantitative RT-PCR; format: cell-based, rat; settings: INS-1 cells, siRNA 100 nM, 24 hours after introduction
Description: (§2) INS-1 cells (rat pancreatic β cell line) were cultured in an incubator at 5% CO2/95% air and 37° C. using an RPMI 1640 medium (GIBCO) containing 10 mM HEPES, 10% FBS, 1 mM sodium pyruvate, and 50 μM β-mercaptoethanol. Subculturing was carried out every 5 days, using PBS containing 0.25% trypsin/0.02% EDTA.
(§3) The cells were seeded on a 12-well plate (Iwaki Glass Co. Ltd.) at a concentration of 0.25×10^5 cells/cm^2 and were cultured for 48 hours. A cocktail of three types of siRNAs to the Reg IIIβ gene, individual siRNAs (three types), siRNA to Lamin (positive control; B-Bridge), and a cocktail of three types of non-specific siRNAs (negative control; B-Bridge) were diluted with Opti-MEM (GIBCO) so as to produce the final concentrations of 100 nM. The respective RNAs were introduced into the cells using Lipofectamine 2000 (Invitrogen Corporation) and the cells were cultured for 24 hours. After washing the cells with PBS twice, total RNAs were prepared using a SV Total Isolation Kit (Promega Corporation) and cDNA pools were then prepared using reverse transcriptase M-MLV (Invitrogen Corporation). Real-time quantitative PCR was conducted under the conditions similarly to the mouse islet case. The expression level of the rat β-actin gene was analyzed as an internal standard in a similar manner. The sequences of the siRNAs and the sequences of specific primers for PCR are shown below.

Lamin gene = test: Gene expression inhibition by siRNA, Lamin mRNA by real-time quantitative RT-PCR; format: cell-based, rat; settings: INS-1 cells, siRNA 100 nM, 24 hours after introduction
Description: as §2, §3

**Q.** With `CC[C@H](C)[C@H](NC(=O)CNC(=O)[C@H](CC(=O)O)NC(=O)[C@H](CO)NC(=O)[C@@H](N)Cc1c[nH]cn1)C(=O)N[C@@H](Cc1ccccc1)C(=O)N[C@H](C(=O)N[C@@H](CC(=O)O)C(=O)N[C@@H](CO)C(=O)N[C@@H](Cc1ccc(O)cc1)C(=O)N[C@@H](CO)C(=O)N[C@@H](CCCNC(=N)N)C(=O)N[C@@H](Cc1ccc(O)cc1)C(=O)N[C@@H](CCCNC(=N)N)C(=O)N[C@@H](CCCCN)C(=O)N[C@@H](CCC(N)=O)C(=O)N[C@@H](CCSC)C(=O)N[C@@H](C)C(=O)N[C@H](C(=O)N[C@@H](CCCCN)C(=O)N[C@@H](CCCCN)C(=O)N[C@@H](Cc1ccc(O)cc1)C(=O)N[C@@H](CC(C)C)C(=O)N[C@@H](C)C(=O)N[C@@H](C)C(=O)N[C@H](C(=O)N[C@@H](CC(C)C)C(=O)NCC(=O)N[C@@H](CCCCN)C(=O)N[C@@H](CCCNC(=N)N)C(=O)N[C@@H](Cc1ccc(O)cc1)C(=O)N[C@@H](CCCCN)C(=O)N[C@@H](CCC(N)=O)C(=O)N[C@@H](CCCNC(=N)N)C(=O)N[C@H](C(=O)N[C@@H](CCCCN)C(=O)N[C@@H](CC(N)=O)C(=O)N[C@@H](CCCCN)C(N)=O)C(C)C)C(C)C)C(C)C)[C@@H](C)O` [PACAP] as the compound, how does the “effect on cell growth” value (INS-1 cells; 3 mM glucose) read?
**A.** No effects

**Q.** And the “effect on cell growth” value (INS-1 cells; 11 mM glucose)?
**A.** No effects

**Q.** What about the “cell growth inhibition, dependence on PACAP concentration” value (INS-1 cells; high glucose concentration, varying PACAP concentration) of the same compound?
**A.** inhibited the cell growth of INS-1 cells in a concentration-dependent manner

**Q.** And the “change in mRNA expression of Reg IIIβ” value (Reg IIIβ; 3 mM glucose)?
**A.** no change in expression

**Q.** And the “change in mRNA expression of Reg IIIβ” value (Reg IIIβ; 11 mM glucose)?
**A.** no change in expression

**Q.** And the “change in mRNA expression of Reg IIIβ” value (Reg IIIβ; high glucose concentration (25 mM), after 4 hours)?
**A.** expression-induction

**Q.** What about the “change in mRNA expression of Reg IIIβ” value (Reg IIIβ; high glucose concentration (25 mM), until after 48 hours) of the same compound?
**A.** continuous increase in the expression

**Q.** And the “level at which glucose-inducible insulin secretion is promoted” value (isolated islet)?
**A.** 10^−14 M

**Q.** For “(3): double-stranded siRNA to Reg IIIβ, SEQ ID NO:20/21 (chain 1 GGAAACAGCUACCAAUAUATT; chain 2 UAUAUUGGUAGCUGUUUCCTT; chemistry not given here)”, which “suppression of expression of Reg IIIβ gene vs negative control” value (Reg IIIβ gene) is on record?
**A.** about 60%

**Q.** For “Lamin siRNA: double-stranded siRNA to Lamin A/C, positive control (B-Bridge), SEQ ID NO:14/15 (chain 1 GGUGGUGACGAUCUGGGCUTT; chain 2 AGCCCAGAUCGUCACCACCTT; chemistry not given here)”, which “suppression of expression of Lamin gene vs negative control” value (Lamin gene) is on record?
**A.** about 65%
